Source: US6555692B1, “Preparation and use of bifunctional molecules having DNA sequence binding specificity” (California Institute of Technology, priority 1996, dated 2003)

Experiments:
[1] = system: 262 bp restriction fragment (EcoRI/FspI) of pBR322; test: DNA alkylation / cleavage reactions; type: biochemical
Method: Alkylation was examined on a 262 bp restriction fragment (EcoRI/FspI) of pBR322, radiolabeled on the 3′ end (10,000 cpm/reaction). Polyamide or bromodistamycin were added at appropriate concentrations. Final reaction concentrations were 10 mM sodium phosphate (pH 7.0), 100 μM sonicated calf thymus DNA. The reactions were incubated at 37° C. for 0, 1, 5, 10, 20, and 40 hours. Following incubation, the reactions were ethanol precipitated and dissolved in 10 μl 10 mM sodium phosphate buffer and heated at 90° C. for 15 minutes. Piperidine (40 μl, 1.4 M) was added and the reaction heated again for 15 minutes at 90° C. Piperidine was lyophilized off and the reactions were resuspended in 7 μl 1× TBE/80% formamide loading buffer, denatured by heating at 85° C. for 10 minutes and placed on ice. Reactions were electrophoresed on 8% polyacrylamide gels (5% cross link, 7 M urea) in 1× TBE at 2000V. Gels were dried and exposed to a storage phosphor screen (Molecular Dynamics).

5′-[…]-3′ = test: Quantitative DNase I footprinting, pJT-LTR 245 base pair fragment; type: binding, HIV-1
5′-TGCGCA-3′ = test: DNase I footprint titration, pSES9hp fragment; type: binding
From the text: The experimental target plasmid pSES9hp was constructed by hybridization of the inserts:
The plasmid pSES9hp was linearized with EcoRI and PvuII and then treated with Klenow fragment, deoxyadenosine 5′-[α-^32P]triphosphate and thymidine 5′-[α-^32P]triphosphate for 3′ labeling. Alternatively, pSES9hp was linearized with EcoRI, treated with calf alkaline phosphatase, and then 5′ labeled with T4 polynucleotide kinase and deoxyadenosine 5′- [γ-^32P]triphosphate. The 5′ labeled fragment was then digested with PvuII. The labeled fragment (3′ or 5′) was loaded onto a 5% non-denaturing polyacrylamide gel, and the desired 282 base pair band was visualized by autoradiography and isolated. Chemical sequencing reactions were performed according to published methods. (Maxam, A. M. & Gilbert, W. S. (1980). Sequencing End-Labeled DNA with Base-Specific Chemical Cleavages. Methods Enzymol. 65, 499-560; Iverson, B. L. & Dervan, P. B. (1987). Adenine-specific DNA chemical sequencing reaction. […], 7823-7830.)

5′-AAAAAGACAAAAA-3′ = test: Quantitative DNase I footprint titration; type: binding; details: 13 bp site
From the text: At least two distinct binding modes are expected to form for the ImPyPy-X-PyPyPy-Dp polyamides described above that bind in an extended conformation. These binding modes as “slipped” and “overlapped”. In the overlapped (9 base pair) binding mode, two ImPyPy-X-PyPyPy-Dp polyamides bind directly opposite one another. The “slipped” (13 base pair) binding mode integrates the 2:1 and 1:1 polyamide-DNA binding motifs at a single site. In this binding mode, the ImPyPy moieties of two ImPyPy-X-PyPyPy-Dp polyamides bind the central 5′-AGACA-3′ sequence in a 2:1 manner as in the ImPyPy homodimer, and the PyPyPy moieties of the polyamides bind to A,T flanking sequences as in the 1:1 complexes of distamycin.

5′-TGTTAAACA-3′ = test: Quantitative DNase I footprint titration; type: binding; details: 9 bp site
From the text: To identify a flexible linker amino acid, four polyamides of the formula ImPyPy-X-PyPyPy-Dp where X=Py, G (glycine), β, or γ, respectively, were synthesized and their equilibrium association constants determined for 5′-[…]-3′ (9 base pair) sites. (Trauger, et al. J. Am. Chem. Soc., 118, 6160 (1996).)

5′-TGTTA-3′ [2] = details: cited from earlier work; for equilibrium association constant Ka: 5′-TGTTA-3′ target site, prior art
5′-TGTTA-3′ [3] = test: Quantitative DNase I footprint titration, equilibrium association constant
5′-AACCAAGTACTTGGTA-3′ = test: Association constants, recognition of 16 base pairs; type: binding; details: for Specificity 5′-AACCAACTAGTTGGTA: Table 8, center mismatch; for Specificity 5′-AACCAAGTACTTGCGA: Table 8, edge mismatch; for Ka 5′-AACCAAGTACTTGGTA: Table 8, match site
From the text: Table 8 illustrates recognition of 16 Base-Pairs by ImPyPyPy-X-ImImPy-γ-PyPyPy-β-Dp.

5′-AGTACT-3′ = test: Quantitative DNase I footprint titration, 229 bp restriction fragment; type: binding
Method: (§1) ImPyPyPy-γ-ImPyPyPy-β-Dp and ImPyPyPy-γ-PyPyPyPy-β-Dp were synthesized by solid phase methods and purified by reversed phase HPLC. Equilibrium association constants for match and mismatch six base pair binding sites on a 3′^32P-labeled 229 bp restricted fragment were determined by quantitative DNase I footprint titration experiments. […] The specificity of ImPyPyPy-γ-ImPyPyPy-β-Dp and ImPyPyPy-γ-PyPyPyPy-β-Dp for their respective match sites results from very small structural changes.

5′-AGTATT-3′ = test: as above; type: binding
Method: as §1

[4] = system: 282 bp EcoRI/PvuII restriction fragment from plasmid pSES9hp (5′-TGGCCA-3′, 5′-TGCGCA-3′, 5′-TGGGGA-3′ sites); test: Affinity cleaving, identification of binding orientation; details: 25 mM Tris-acetate, 10 mM NaCl, 100 μM/base pair calf thymus DNA, pH 7.0, 22° C.
Method: Affinity cleavage assays (25 mM Tris-acetate, 10 mM NaCl, 100 μM/base pair calf thymus DNA, pH 7.0 and 22° C.) were performed in order to identify the binding orientations of the EDTA analogues of the three hairpin polyamides: ImImPyPy-γ-ImImPyPy-β-Dp-EDTA, ImPyImPy-γ-ImPyImPy-β-Dp-EDTA , and ImImImIm-γ-PyPyPyPy-β-Dp-EDTA.
Depicted in FIG. 17 is a representative affinity cleaving experiment on a 3′-^32P-labeled 282 bp EcoRI/PvuII restriction fragment from plasmid pSES9hp. […] Lane 1, A reaction; lane 2, C reaction; lanes 3-5, 1 μM, 2 μM and 5 μM ImImPyPy-γ-ImImPyPy-β-Dp-EDTA (1-E); lanes 6-8, 1 μM, 2 μM and 5 μM ImPyImPy-γ-ImPyImPy-β-Dp-EDTA (2-E); lanes 9-11, 1 μM, 2 μM and 5 μM ImImImIm-γ-PyPyPyPy-β-Dp-EDTA (3-E); lane 12, intact DNA. All lanes contain 15 kcpm 3′-radiolabeled DNA, 25 mM Tris-acetate buffer (pH 7.0), 10 mM NaCl, and 100 μM/base pair calf thymus DNA. (Right) Affinity cleavage patterns for ImImPyPy-γ-ImImPyPy-β-Dp-EDTA and ImPyImPy-γ-ImPyImPy-β-Dp-EDTA at 1 μM concentration, and ImImImIm-γ-PyPyPyPy-β-Dp-EDTA at 5 μM concentration. Illustration of the 282 bp restriction fragment with the position of the sequence indicated. Bar heights are proportional to the […] at each band. Boxes represent equilibrium binding sites determined by the published model, and only sites that were quantitated by DNase I footprint titrations are boxed.

## COc1c(O)c2c(c3cc(C(=O)N4CCc5c4c(O)c(OC)c4[nH]c(C(=O)N6C[C@H]7C[C@@]78C6=CC(=O)c6[nH]cc(C)c68)cc54)[nH]c13)CCN2C(N)=O [(+)CC-1065]
[1]; reaction time 1 hour at 37° C.
  DNA cleavage (alkylation): intense cleavage at 13 adenines

## CN(C)CCCNC(=O)CCNC(=O)c1cc(NC(=O)c2cc(NC(=O)CCNC(=O)c3cc(NC(=O)c4nc(NC(=O)CCNC(=O)c5cc(NC(=O)c6nc(NC(=O)CCNC(=O)c7cc(NC(=O)c8nccn8C)cn7C)cn6C)cn5C)cn4C)cn3C)cn2C)cn1C [ImPy-β-ImPy-β-ImPy-β-PyPy-β-Dp]
5′-[…]-3′
  lower affinity at other mismatch-sites on the restriction fragment: 10-20 fold
5′-[…]-3′; 16 bp target site, pH 7.0, 24° C., values above 1-2×10^10 M^−1 are a lower limit
  apparent monomeric association constant Ka: 3.5e+10 M⁻¹
5′-[…]-3′; […]
  lower affinity at proximal two-base pair mismatch site: at least 35 fold

## CN(C)CCCNC(=O)CCNC(=O)c1cc(NC(=O)c2nc(NC(=O)c3cc(NC(=O)c4nc(NC(=O)CCCNC(=O)c5cc(NC(=O)c6nc(NC(=O)c7cc(NC(=O)c8nccn8C)cn7C)cn6C)cn5C)cn4C)cn3C)cn2C)cn1C [ImPyImPy-γ-ImPyImPy-β-Dp]
5′-TGCGCA-3′
  Ka: 4e+07 M⁻¹
  specificity: 4 fold

## CN(C)CCCNC(=O)c1cc(NC(=O)c2cc(NC(=O)c3cc(NC(=O)CCNC(=O)c4cc(NC(=O)c5cc(NC(=O)c6nccn6C)cn5C)cn4C)cn3C)cn2C)cn1C [ImPyPy-β-PyPyPy-Dp]
5′-AAAAAGACAAAAA-3′
  Ka higher than ImPyPy-Py-PyPyPy-Dp by a factor of: ~85
5′-AAAAAGACAAAAA-3′; slipped binding
  association constant Ka: 5e+09 M⁻¹
5′-TGTTAAACA-3′
  affinity higher than ImPyPy-Py-PyPyPy-Dp by a factor of: ~10
5′-TGTTAAACA-3′; overlapped binding
  Ka: 8e+08 M⁻¹

## CN(C)CCCNC(=O)c1cc(NC(=O)c2cc(NC(=O)c3cc(NC(=O)CCCNC(=O)c4cc(NC(=O)c5cc(NC(=O)c6nccn6C)cn5C)cn4C)cn3C)cn2C)cn1C [ImPyPy-γ-PyPyPy-Dp, reference compound]
5′-TGTTA-3′ [2]
  equilibrium association constant Ka: 8e+07 M⁻¹
5′-TGTTA-3′ [2]; 5′-TGTTA-3′
  increase in Ka relative to the unlinked three-ring polyamide pair ImPyPy and PyPyPy: 300 fold
5′-TGTTA-3′ [3]; 5′-TGTTA-3′ match site
  apparent first order association constant Ka: 8e+07 M⁻¹
5′-TGTTA-3′ [3]; 5′-TGTTA-3′ match vs 5′-TGACA-3′ mismatch
  specificity, match site relative to single base pair mismatch site: 24 fold

## CN(C)CCCNC(=O)CCNC(=O)c1cc(NC(=O)c2cc(NC(=O)c3cc(NC(=O)CCCNC(=O)c4cc(NC(=O)c5nc(NC(=O)c6nc(NC(=O)CCCCCNC(=O)c7cc(NC(=O)c8cc(NC(=O)c9cc(NC(=O)c%10nccn%10C)cn9C)cn8C)cn7C)cn6C)cn5C)cn4C)cn3C)cn2C)cn1C [ImPyPyPy-C6-ImImPy-γ-PyPyPy-β-Dp]
5′-AACCAAGTACTTGGTA-3′
  Specificity 5′-AACCAACTAGTTGGTA: 1
  Specificity 5′-AACCAAGTACTTGCGA: 1
  Ka 5′-AACCAAGTACTTGGTA: 1 × 10^8

## CN(C)CCCNC(=O)CCNC(=O)c1cc(NC(=O)c2cc(NC(=O)c3cc(NC(=O)CCCNC(=O)c4cc(NC(=O)c5nc(NC(=O)c6nc(NC(=O)CCNC(=O)CCNC(=O)c7cc(NC(=O)c8cc(NC(=O)c9cc(NC(=O)c%10nccn%10C)cn9C)cn8C)cn7C)cn6C)cn5C)cn4C)cn3C)cn2C)cn1C [ImPyPyPy-β-β-ImImPy-γ-PyPyPy-β-Dp]
5′-AACCAAGTACTTGGTA-3′
  Specificity 5′-AACCAACTAGTTGGTA: 1
  Specificity 5′-AACCAAGTACTTGCGA: 1
  Ka 5′-AACCAAGTACTTGGTA: 3 × 10^8

## CN(C)CCCNC(=O)CCNC(=O)c1cc(NC(=O)c2cc(NC(=O)c3cc(NC(=O)c4nc(NC(=O)CCCNC(=O)c5cc(NC(=O)c6cc(NC(=O)c7cc(NC(=O)c8nccn8C)cn7C)cn6C)cn5C)cn4C)cn3C)cn2C)cn1C [ImPyPyPy-γ-ImPyPyPy-β-Dp]
5′-AGTACT-3′; N to C—H replacement, 5′-AGTACT-3′ complex
  free energy difference: ~2.5 kcali/mole
5′-AGTACT-3′; match site 5′-AGTACT-3′, read-out: concentration at which the match site is bound
  Kd: 0.03 nM
5′-AGTACT-3′; mismatch 5′-AGTATT-3′ vs match 5′-AGTACT-3′
  lower affinity for single base pair mismatch site: ~100 fold
5′-AGTACT-3′; vs ImPyPyPy-γ-PyPyPyPy-β-Dp
  reduction of affinity of the polyamide•5′-AGTACT-3′ complex on replacing a single nitrogen atom with C—H: ~75 fold

## CN(C)CCCNC(=O)CCNC(=O)c1cc(NC(=O)c2cc(NC(=O)c3cc(NC(=O)c4cc(NC(=O)CCCNC(=O)c5cc(NC(=O)c6cc(NC(=O)c7cc(NC(=O)c8nccn8C)cn7C)cn6C)cn5C)cn4C)cn3C)cn2C)cn1C [ImPyPyPy-γ-PyPyPyPy-β-Dp]
5′-AGTATT-3′; C—H to N replacement, 5′-AGTATT-3′ complex
  loss in binding energy: ~1.3 kcal/mol
5′-AGTATT-3′; match site 5′-AGTATT-3′, read-out: concentration at which the match site is bound
  Kd: 0.3 nM
5′-AGTATT-3′; mismatch 5′-AGTACT-3′ vs match 5′-AGTATT-3′
  lower affinity for single base pair mismatch site: ~10 fold
5′-AGTATT-3′; vs ImPyPyPy-γ-ImPyPyPy-β-Dp
  reduction of affinity of the polyamide•5′-AGTATT-3′ complex on replacing a C—H with N: ~10 fold

## Cn1cc(NC(=O)c2cc(NC(=O)c3cc(NC(=O)CBr)cn3C)cn2C)cc1C(=O)NCCC(=N)N [N-Bromoacetyldistamycin]
[1]; after 10 hours at 37°
  DNA cleavage (alkylation): comparable amount of cleavage to (+) CC-1065 at 1 hour, but at only one adenine
[1]; reaction time 1 hour at 37° C.
  DNA cleavage (alkylation): almost no visible cleavage

## Im-β-ImPy-γ-Im-β-ImPy-β-Dp [Im-βImPy-γ-Im-β-ImPy-β-Dp]
5′-TGCGCA-3′; 5′-TGCGCA-3′ sequences
  affinity (in words): subnanomolar affinities

## ImImImIm-γ-PyPyPyPy-β-Dp-EDTA
[4]
  binding orientation by affinity cleaving: single orientation

## ImImPyPy-γ-ImImPyPy-β-Dp-EDTA
[4]
  binding orientation by affinity cleaving: two equivalent orientations

## ImPyImPy-γ-ImPyImPy-β-Dp-EDTA
[4]
  binding orientation by affinity cleaving: two equivalent orientations

## ImPyPy-γ-PyPyPy-Dp
5′-TGTTA-3′ [2]
  sequence-specificity versus single base pair mismatch sites: 30 fold

## cyclo-(ImPyPy-γ-PyPyPy-γ-)
5′-TGTTA-3′ [2]
  equilibrium association constant Ka: 2.9e+09 M⁻¹
  sequence-specificity versus single base pair mismatch sites: 2 fold
5′-TGTTA-3′ [2]; 5′-TGTTA-3′
  increase in Ka relative to the corresponding hairpin polyamide ImPyPy-γ-PyPyPy: 40 fold
